Activity calls are given as the source filed them. No cut-off for these calls is given here.
What was measured:
[1] = tested on: Leishmania donovani; assay: (§1) Antileishmanial activity against Leishmania donovani Ag83 promastigotes infected in BALB/c mouse model of visceral leishmaniasis assessed as fold change in T-helper type 1 immunological evoke response in splenocytes by measuring decrease in IL-10 level treated after 3 weeks of infection at 5 to 10 mg/kg, ip twice a week for 3 weeks by RT-PCR analysis; type: functional; settings: dose 5-10 mg/kg
[2] = tested on: Leishmania donovani; assay: Antileishmanial activity against Leishmania donovani Ag83 promastigotes infected in BALB/c mouse assessed as reduction of amastigote burden by measuring parasite count in blood treated after 3 weeks of infection at 5 to 10 mg/kg, ip twice a week for 3 weeks by qPCR based kineto-plastid DNA; type: functional, organism-based; settings: dose 5-10 mg/kg
[3] = tested on: Leishmania donovani; assay: Induction of cell cycle arrest in Leishmania donovani Ag83 promastigotes assessed as decrease in accumulation of cells in G2/M phase at 5 uM measured after 24 hrs by PI staining based flow cytometry (reference value: 15.1 %); type: functional; design: scale not given: the % may be the effect or the level left
[4] = biological target: T1, DNA topoisomerase I (Leishmania donovani (strain BPK282A1)) (UniProt E9BRC0); assay: Potency index, ratio of Camptothecin IC50 to compound IC50 for inhibition of Leishmania donovani Top1 assessed as relaxation of supercoiled pBluescript SK(+) DNA measured by agarose gel electrophoresis analysis
T1 sequence (whole entry): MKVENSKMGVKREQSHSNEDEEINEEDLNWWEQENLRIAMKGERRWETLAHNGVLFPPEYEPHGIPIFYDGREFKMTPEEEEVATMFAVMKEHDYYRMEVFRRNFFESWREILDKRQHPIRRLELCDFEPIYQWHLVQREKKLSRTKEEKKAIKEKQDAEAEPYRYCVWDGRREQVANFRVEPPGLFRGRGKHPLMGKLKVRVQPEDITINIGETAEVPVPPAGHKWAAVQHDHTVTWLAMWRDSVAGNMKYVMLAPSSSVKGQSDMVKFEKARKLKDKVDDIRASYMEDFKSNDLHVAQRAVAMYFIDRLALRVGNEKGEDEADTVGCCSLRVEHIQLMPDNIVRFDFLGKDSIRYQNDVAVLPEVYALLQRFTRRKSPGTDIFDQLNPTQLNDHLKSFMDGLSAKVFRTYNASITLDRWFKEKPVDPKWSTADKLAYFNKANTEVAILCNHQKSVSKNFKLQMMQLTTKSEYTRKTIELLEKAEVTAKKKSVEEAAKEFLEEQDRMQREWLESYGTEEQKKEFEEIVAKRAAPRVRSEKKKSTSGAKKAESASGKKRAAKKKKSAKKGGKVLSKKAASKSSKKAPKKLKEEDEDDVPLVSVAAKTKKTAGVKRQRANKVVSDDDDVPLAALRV

[5] = biological target: T1, DNA topoisomerase I (Leishmania donovani (strain BPK282A1)); assay: Binding affinity to topoisomerase I in Leishmania donovani Ag83 whole cell lysate assessed as stabilization of cleavage complex at 5 to 50 uM measured after 30 mins; type: subcellular; settings: dose 5-50 µM
[6] = biological target: T1, DNA topoisomerase I (Leishmania donovani (strain BPK282A1)); assay: Binding affinity to Leishmania donovani topoisomerase I assessed as DNA intercalation by measuring dislodging of bound fluorophore at 200 uM by EtBr displacement assay
[7] = tested on: Leishmania donovani; assay: Induction of apoptosis in Leishmania donovani Ag83 promastigotes assessed as late apoptotic cells measured at 5 uM after 24 hrs by Annexin V-FITC/PI staining based flow cytometric analysis (reference value: 0.1%); type: functional
[8] = tested on: Leishmania donovani; assay: Induction of apoptosis in Leishmania donovani Ag83 promastigotes assessed as increase in apoptotic cells measured at 5 uM after 1.5 hrs by Annexin V-FITC/PI staining based flow cytometric analysis; type: functional, organism-based
[9] = tested on: Leishmania donovani; assay: Induction of apoptosis in Leishmania donovani Ag83 promastigotes assessed as early apoptotic cells measured at 5 uM after 12 hrs by Annexin V-FITC/PI staining based flow cytometric analysis (reference value: 0.00%); type: functional
[10] = tested on: Leishmania donovani; assay: Induction of cell cycle arrest in Leishmania donovani Ag83 promastigotes assessed as decrease in accumulation of cells in S phase at 5 uM measured after 24 hrs by PI staining based flow cytometry (reference value: 18.1%); type: functional; design: scale not given: the % may be the effect or the level left
[11] = tested on: Leishmania donovani; assay: as §1, with “as” for “as fold change in”, “type 2” for “type 1”, “in IL-4” for “in IL-10”; type: functional, organism-based; settings: dose 5-10 mg/kg
[12] = tested on: Leishmania donovani; assay: Induction of cell cycle arrest in antimony resistant Leishmania donovani BHU575 promastigotes assessed as decrease in accumulation of cells in S phase at 5 uM measured after 12 hrs by PI staining based flow cytometry (reference value: 9.8%); type: functional; design: scale not given: the % may be the effect or the level left
[13] = tested on: HEK293; assay: Potency index ratio of test compound IC50 to camptothecin IC50 for cytotoxicity against HEK293 cells; type: functional, Homo sapiens
[14] = tested on: Leishmania donovani; assay: Antileishmanial activity against Leishmania donovani Ag83 promastigotes infected in BALB/c mouse assessed as reduction of amastigote burden by measuring parasite count in liver treated after 3 weeks of infection at 5 to 10 mg/kg, ip twice a week for 3 weeks by qPCR based kineto-plastid DNA; type: functional, organism-based; settings: dose 5-10 mg/kg
[15] = biological target: T1, DNA topoisomerase I (Leishmania donovani (strain BPK282A1)); assay: Binding affinity to antimony resistant Leishmania donovani BHU575 promastigotes recombinant topoisomerase I assessed as fold change in stabilization of cleavage complex at 5 to 50 uM measured after 30 mins relative to camptothecin; settings: dose 5-50 µM
[16] = tested on: Leishmania donovani; assay: Antileishmanial activity against antimony resistant Leishmania donovani BHU575 promastigotes infected in BALB/c mouse assessed as reduction of amastigote burden in spleen treated after 3 weeks of infection at 5 to 10 mg/kg, ip twice a week for 3 weeks by Giemsa staining stamp-smear based limiting dilution assay; type: functional, organism-based; settings: dose 5-10 mg/kg
[17] = tested on: Leishmania donovani; assay: Induction of cell cycle arrest in antimony resistant Leishmania donovani BHU575 promastigotes assessed as decrease in accumulation of cells in S phase at 5 uM measured after 24 hrs by PI staining based flow cytometry (reference value: 9.8%); type: functional; design: scale not given: the % may be the effect or the level left
[18] = tested on: Leishmania donovani; assay: Antileishmanial activity in Leishmania donovani Ag83 promastigotes assessed as Top1cc-induced DNA breakdown by measuring TUNEL positive cells by confocal microscopic analysis; type: functional, organism-based; settings: time 6-12 hrs, TDE = time-dependent effect
[19] = tested on: Leishmania donovani; assay: Induction of cell cycle arrest in Leishmania donovani Ag83 promastigotes assessed as decrease in accumulation of cells in S phase at 5 uM measured after 6 hrs by PI staining based flow cytometry (reference value: 18.1%); type: functional; design: scale not given: the % may be the effect or the level left
[20] = tested on: Leishmania donovani; assay: Induction of apoptosis in Leishmania donovani Ag83 promastigotes assessed as early apoptotic cells measured at 5 uM after 24 hrs by Annexin V-FITC/PI staining based flow cytometric analysis (reference value: 0.00%); type: functional
[21] = tested on: Leishmania donovani; assay: Antileishmanial activity against antimony resistant Leishmania donovani BHU575 promastigotes infected in BALB/c mouse assessed as reduction of macrophage at 1 to 10 uM infection by propidium iodide staining analysis; type: functional, organism-based; settings: dose 1-10 µM, time 72-96 hrs, TDE = time-dependent effect
[22] = biological target: T1, DNA topoisomerase I (Leishmania donovani (strain BPK282A1)); assay: Inhibition of Leishmania donovani recombinant Top1 assessed as relaxation of supercoiled pBluescript SK(+) DNA incubated for 30 mins by agarose gel electrophoresis analysis; settings: dose 0.5-10 µM
[23] = tested on: Leishmania donovani; assay: Induction of apoptosis in Leishmania donovani BHU575 promastigotes assessed as DNA break accumulation measured at 5 uM after 6 to 24 hrs by TUNEL staining based assay; type: functional, organism-based; settings: time 6-24 hrs
[24] = tested on: MCF7; assay: Potency index ratio of test compound IC50 to camptothecin IC50 for cytotoxicity against human MCF7 cells; type: functional
[25] = tested on: Leishmania donovani; assay: Induction of apoptosis in Leishmania donovani Ag83 promastigotes assessed as necrotic cells measured at 5 uM after 6 hrs by Annexin V-FITC/PI staining based flow cytometric analysis (reference value: 0.5%); type: functional

## COc1cc(-c2nc3ccccc3c3nc4ccccn4c23)cc(OC)c1OC
[1]
  fold change (FC): 2
[2]
  Activity: Active
[3]
  Activity: 34.2%
[4]
  Ratio IC50: 2.5
[5]
  Activity: Active
[6]
  Activity: inactive
[7]
  Activity: 70.6%
[8]
  Activity: Active
[9]
  Activity: 11.4%
[10]
  Activity: 31.5%
[11]
  Activity: Active
[12]
  Activity: 23.7%
[13]
  Ratio IC50: 90
[14]
  Activity: Active
[15]
  fold change (FC): 5
[16]
  Activity: Active
[17]
  Activity: 22.3%
[18]
  Activity: Tde
[19]
  Activity: 13.6%
[20]
  Activity: 4.9%
[21]
  Activity: Tde
[22]
  inhibition: Dose-Dependent Effect
[23]
  Activity: Active
[24]
  Ratio IC50: 90
[25]
  Activity: 23.9%
